Converted amounts (≈) assume the structure as drawn.
Key:
Assay in all cases: antifungal (yeast) sensitivity, inhibitor dilution assay in microtiter format
Settings in all cases: YNB/G, lowest concentration to prevent growth, 24 to 48 hours, 35° C., read-out: Minimum Inhibitory Concentration
C. tropicalis MY1012 = type: cell-based, Candida tropicalis
Protocol: (§1) The compounds are particularly active towards filamentous fungi and yeasts including Candida albicans and Cryptococcus neoformans. The sensitivity of filamentous fungi and yeast was determined using inhibitor dilution assays in microtiter format. The compounds were dissolved in DMSO at 2 mg/ml and serially diluted in 0.1M phosphate buffer, pH 7.0 in the microtiter dish from 100 to 0.006 μg/ml. A standardized spore suspension for testing the filamentous fungi was prepared by inoculating Antibiotic Medium #3 containing 1.5% agar with spores such that 1.5×10^3 colony forming units were added per well. The microtiter wells were filled with 50 μl of buffer containing compound and 50 μl of inoculated medium.
(§2) The sensitivity of yeasts was determined by inoculating yeast nitrogen base containing 1% dextrose (YNB/G) with aliquots of an overnight yeast culture grown in Yeast Morphology (YM) media at 35° C. and diluting in YNB/G to yield a final concentration of 1.5-7.5×10^3 colony forming units/well. To test the sensitivity of yeast, compound was solubilized in 10 percent aqueous DMSO at 2.56 mg/ml. The compound was diluted serially in YNB/G from 128 to 0.06 μg/ml and further diluted 1:10 in YNB/G. The wells were filled with 150 μl of media containing drug. […]

C. parapsilosis MY1010 = type: cell-based, Candida parapsilosis
Protocol: as §1, §2

Crypt. neoformans MY1051 = type: cell-based, Cryptococcus neoformans
Protocol: as §1, §2

MIC (C. tropicalis MY1012): 8 µg/mL (≈ 10.6 µM)
MIC (C. parapsilosis MY1010): 8 µg/mL (≈ 10.6 µM)
MIC (Crypt. neoformans MY1051): 1 µg/mL (≈ 1.32 µM)
SMILES: CC(=O)OC(CCCC12OC(C(=O)O)C(O)(C(=O)O)C(C(=O)O)(O1)C(OC(=O)CCC=CC(C)CCCc1ccccc1)C2O)C(C)Cc1ccccc1 (stereo not drawn) [Compound A]

Reference: patent US5102907A, “Novel squalene synthetase inhibitors” (Merck & Co., Inc., priority 1990, dated 1992)
